Data published in patent US7825128B2, “Sulfoximine-substituted pyrimidines, processes for production thereof and use thereof as drugs” (Bayer Schering Pharma AG, priority 2005, dated 2010).

Tests used:
Format in all cases: biochemical
[1] = biological target: T1, Aurora-C (Homo sapiens, UniProt Q9UQB9); assay: Aurora-C kinase assay; settings: 3 μM ATP
T1 construct: made in house; host or cells: transiently transfected HEK293 cells
T1 sequence (Q9UQB9 1-309): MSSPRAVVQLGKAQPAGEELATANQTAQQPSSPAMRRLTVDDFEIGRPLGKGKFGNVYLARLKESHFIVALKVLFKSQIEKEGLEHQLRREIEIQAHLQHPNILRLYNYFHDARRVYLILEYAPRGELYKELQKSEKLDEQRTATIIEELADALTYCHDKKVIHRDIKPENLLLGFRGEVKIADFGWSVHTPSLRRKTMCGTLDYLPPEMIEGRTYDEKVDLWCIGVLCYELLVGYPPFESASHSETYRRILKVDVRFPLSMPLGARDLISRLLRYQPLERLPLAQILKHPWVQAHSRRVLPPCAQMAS
Protocol: Recombinant Aurora-C Protein was expressed in transiently transfected HEK293 cells and then purified. As the kinase substrate, the biotinylated peptide with the amino acid sequence biotin-FMRLRRLSTKYRT, which was purchased from the company Jerini AG in Berlin, was used.
Aurora-C [5 nM in the test mixture, test volume 5 μl] was incubated for 90 mins at 22° C. in the presence of different concentrations of test substances (0 μM, and 10 data points within the range 0.001-20 μM in duplicate values) in assay buffer [25 mM HEPES pH 7.4, 0.5 mM MnCl2, 0.1 mM Na orthovanadate, 2.0 mM dithiothreitol, 0.05% bovine serum albumin (BSA), 0.01% Triton X-100, 3 μM adenosine trisphosphate (ATP), 0.67 nCi/μl gama-P33-ATP, 2.0 μM substrate peptide biotin-FMRLRRLSTKYRT, 1.0% dimethylsulfoxide]. The reaction was stopped by addition of 12.5 μl of an EDTA/detection solution [16 mM EDTA, 40 mM ATP, 0.08% Triton X-100, 4 mg/ml PVT-streptavidin-SPA beads (Amersham Co.)]. After 10 minutes' incubation, the SPA beads were pelleted by 10-minute centrifugation at 1000×G. The measurement was performed in a Topcount scintillation meter from the Perkin Elmer company. […] The IC50 values were determined by a 4-parameter fit using in-house software. […]

[2] = biological target: T2, ITK (Homo sapiens, UniProt Q08881); assay: ITK kinase assay a) (polyGT, FRET); settings: polyGT substrate, 1.3 μM ATP
T2 sequence (Q08881 1-620): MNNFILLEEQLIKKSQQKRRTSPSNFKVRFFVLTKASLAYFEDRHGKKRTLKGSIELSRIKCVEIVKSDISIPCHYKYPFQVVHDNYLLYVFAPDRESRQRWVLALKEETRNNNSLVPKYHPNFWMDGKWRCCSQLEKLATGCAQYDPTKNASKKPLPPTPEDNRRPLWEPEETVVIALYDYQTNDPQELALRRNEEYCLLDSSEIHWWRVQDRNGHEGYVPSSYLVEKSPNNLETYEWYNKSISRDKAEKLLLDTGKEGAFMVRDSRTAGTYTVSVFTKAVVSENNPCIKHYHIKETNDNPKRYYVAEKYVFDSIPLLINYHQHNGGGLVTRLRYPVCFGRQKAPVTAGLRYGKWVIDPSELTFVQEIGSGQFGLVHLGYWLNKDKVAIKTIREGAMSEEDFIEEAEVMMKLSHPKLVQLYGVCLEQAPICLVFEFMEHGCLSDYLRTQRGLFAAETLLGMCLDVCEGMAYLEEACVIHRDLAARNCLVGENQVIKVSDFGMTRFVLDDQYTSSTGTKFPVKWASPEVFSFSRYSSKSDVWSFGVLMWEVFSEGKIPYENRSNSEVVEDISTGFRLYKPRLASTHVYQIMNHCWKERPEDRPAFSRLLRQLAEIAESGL
Protocol: For the determination of the kinase activity of ITK, the phosphorylation of polyGT is measured. In the kinase reaction, 106 pM ITK, 1.3 μM ATP and 20 nM polyGT are used. The reaction runs for 20 mins at RT and is then stopped by addition of EDTA (final concentration 60 mM).
The reaction buffer contains 50 mM TrisCL pH7.5, 10 mM MnCl2, 10% glycerine, 1 mM DTT, 0.1% Tween-20 and 0.1 mM Na3V04 and a protease inhibitor cocktail (“complete”, Roche diagnostics)
The measurement of the enzyme activity is effected by the determination of the phosphorylated substrates. The poly GT substrate used is biotinylated. The measurement is performed in a FRET-based assay, wherein an anti-phospho-tyrosine antibody recognises and binds the phosphorylated substrate poly GT.
The bound antibody is now in the spatial vicinity of a streptavidin-coupled fluorescence dye, which was bound to polyGt by biotin-streptavidin interaction. On excitation of the europium chelate on the phosphotyrosine antibody with […] UV light, light of the wavelength 620 nm is emitted, which in turn excites the dye XLent, which then emits light of longer wavelength (665 nm).
The detection reagents are added in 50 mM Hepes pH 7.0 with 0.1% BSA. […]
After addition of the detection reagents, the samples stand overnight at 4 degrees Celsius, in order to form the FRET-creating complexes. For example, an IC50=4 μM was measured for Example 1.7.

[3] = biological target: T3, human Itk (Homo sapiens, UniProt Q08881); assay: ITK kinase assay b) (Itk HTRF assay); settings: biotinylated myelin basic protein, 10 μM ATP
T3 construct: kinase domain of the human Itk (amino acids 352-617); 6His (N); purchased Upstate (Dundee, UK); host or cells: baculovirus infected SF21 cells
T3 sequence (Q08881 352-617): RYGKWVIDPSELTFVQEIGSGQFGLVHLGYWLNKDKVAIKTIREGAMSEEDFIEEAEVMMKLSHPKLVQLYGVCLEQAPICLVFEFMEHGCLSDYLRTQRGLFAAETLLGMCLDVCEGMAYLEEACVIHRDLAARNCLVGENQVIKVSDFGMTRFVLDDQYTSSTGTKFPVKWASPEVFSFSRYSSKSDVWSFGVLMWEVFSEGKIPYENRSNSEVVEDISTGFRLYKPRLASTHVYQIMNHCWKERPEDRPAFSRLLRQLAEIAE
Source text: Itk inhibitory activity of compounds of the present invention was quantified employing the Itk HTRF assay as described in the following paragraphs.
N-terminal 6His-tagged recombinant kinase domain of the human Itk (amino acids 352-617) expressed in baculovirus infected SF21 cells and purified using Ni^2+/NTA agarose was purchased form Upstate (Dundee, UK) and used as kinase. As substrate for the kinase reaction the biotinylated myelin basic protein was used which can be purchased form GE Healthcare (Freiburg i. Br., Germany). […]
The resulting mixture was incubated 1 h at 22° C. to allow the binding of the biotinylated phosphorylated substrate to the streptavidine-XLent and the PT66-Eu-Chelate. Subsequently the amount of phosphorylated substrate was evaluated by measurement of the resonance energy transfer from the PT66-Eu-Chelate to the streptavidine-XLent. Therefore, the fluorescence emissions at 620 nm and 665 nm after excitation at 350 nm was measured in a HTRF reader, e.g. a Rubystar (BMG Labtechnologies, Offenburg, Germany) or a Viewlux (Perkin-Elmer). […] The data were normalised (enzyme reaction without inhibitor=0% inhibition, all other assay components but no enzyme=100% inhibition) and IC50 values were calculated by a 4 parameter fit using an inhouse software.

[4] = biological target: T4, CDK2/CycE (Homo sapiens, UniProt P24941); assay: CDK2/CycE kinase assay; settings: 0.5 μM ATP, Histone IIIS substrate
T4 construct: GST; purchased ProQinase GmbH, Freiburg; host or cells: Baculovirus-infected Sf9 insect cells
Protocol: Recombinant CDK2- and CycE-GST fusion proteins, purified from Baculovirus-infected insect cells (Sf9), were purchased from ProQinase GmbH, Freiburg. Histone IIIS, which was used as the kinase substrate, was purchased from the Sigma Co.
CDK2/CycE (50 ng/data point) was incubated for 10 mins at 22° C. in the presence of different concentrations of test substances (0 μM, and within the range 0.01-100 μM) in assay buffer [50 mM tris/HCl pH8.0, 10 mM MgCl2, 0.1 mM Na orthovanadate, 1.0 mM dithiothreitol, 0.5 μM ATP, 10 μg/data point Histone IIIS, 0.2 μCi/data point ^33P-gamma ATP, 0.05% NP40, 1.25% dimethylsulfoxide]. The reaction was stopped by addition of EDTA solution (250 mM, pH8.0, 15 μl/data point).
15 μl of each reaction mixture was applied onto P30 filter strips (Wallac Co.), and non-incorporated ^33P-ATP was removed by washing the filter strips three times, for 10 mins each time, in 0.5% phosphoric acid. After drying of the filter strips for 1 hour at 70° C., the filter strips were covered with scintillator strips (MeltiLex™ A, Wallac Co.) and baked for 1 hour at 90° C. The quantity of incorporated ^33P (substrate phosphorylation) was determined by scintillation measurement in a gamma radiation meter (Wallac).

[5] = biological target: T5, Tie-2 (Homo sapiens, UniProt Q02763); assay: Tie-2 kinase assay without prior activation of the kinase; settings: 10 μM ATP
T5 construct: consisting of GST and the intracellular domain of Tie-2; made in house; host or cells: insect cells (Hi-5)
Source text: For the kinase assay, a recombinant fusion protein expressed in insect cells (Hi-5) and purified by glutathione-sepharose affinity chromatography, consisting of GST and the intracellular domain of Tie-2, was used. Alternatively, commercially available GST-Tie2 fusion protein (Upstate Biotechnology, Dundee, Scotland) can be used. As the substrate for the kinase reaction, the biotinylated peptide biotin-Ahx-EPKDDAYPLYSDFG (C-terminus in amide form), which can be acquired e.g. from the company Biosyntan GmbH (Berlin-Buch, Germany) was used. […]
The resulting mixture was incubated for 1 hr at 22° C. in order to allow the binding of the biotinylated phosphorylated peptide to the streptavidin-XLent and the PT66-Eu-chelate. After this, the quantity of the phosphorylated substrate peptide was determined by measurement of the resonance energy transfer from the PT66-Eu chelate to the streptavidin-XLent. For this purpose, the fluorescence emission at 620 nm and 665 nm after excitation at 350 nm was measured in a HTRF meter, e.g. Rubystar (BMG Labtechnologies, Offenburg, Germany) or Viewlux (Perkin-Elmer). The ratio of the emissions at 665 nm and at […] was used as a measure of the quantity of the phosphorylated substrate peptide. […]

T5 sequence (Q02763 770-1124 limits assumed, species assumed): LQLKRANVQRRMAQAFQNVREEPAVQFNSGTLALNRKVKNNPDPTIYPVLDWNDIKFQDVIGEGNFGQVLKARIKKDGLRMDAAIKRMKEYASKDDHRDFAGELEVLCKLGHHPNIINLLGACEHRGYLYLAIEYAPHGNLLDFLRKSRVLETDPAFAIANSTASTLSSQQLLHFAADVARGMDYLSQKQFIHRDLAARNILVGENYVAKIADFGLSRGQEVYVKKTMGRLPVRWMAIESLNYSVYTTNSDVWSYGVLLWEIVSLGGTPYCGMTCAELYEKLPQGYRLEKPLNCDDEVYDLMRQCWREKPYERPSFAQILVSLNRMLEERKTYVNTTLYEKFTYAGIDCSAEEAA

CCOC(=O)N=S(C)(=O)c1ccc(Nc2ncc(-c3cccs3)c(N[C@H](C)CO)n2)cc1 (mixture of isomers) [Example 1.1, (RS)—N-(ethoxycarbonyl)-S-(4-{[4-{[(R)-2-hydroxy-1-methylethyl]amino}-5-(2-thienyl)pyrimidine-2-yl]amino}phenyl)-S-methylsulfoximide]
IC50 [1]: 2 µM

CCOC(=O)N=S(C)(=O)c1ccc(Nc2ncc(-c3cccs3)c(N[C@H](CC)CO)n2)cc1Br (mixture of isomers) [Example 1.7, (RS)—S-{2-bromo-4-[(4-{[(R)-1-(hydroxymethyl)propyl]amino}-5-(2-thienyl)pyrimidine-2-yl)amino]phenyl}-N-(ethoxycarbonyl)-S-methylsulfoximide]
IC50 [2]: 4 µM | IC50 [3]: 0.4 µM

CCS(=N)(=O)c1ccc(Nc2ncc(-c3ccsc3)c(N[C@H](CO)CC(C)C)n2)cc1 (mixture of isomers) [Example 5.3, (RS)—S-ethyl-S-(4-{[4-{[(S)-1-(hydroxymethyl)-3-methylbutyl]amino}-5-(3-thienyl)pyrimidine-2-yl]amino}phenyl)sulfoximide]
IC50 [4]: 3 µM

CC[C@H](CO)Nc1nc(Nc2ccc(S(C)(=N)=O)c(Br)c2)ncc1-c1cccs1 (mixture of isomers) [Example 5.5, (RS)—S-{2-bromo-4-[(4-{[(R)-1-(hydroxymethyl)propyl]amino}-5-(2-thienyl)-pyrimidine-2-yl)amino]phenyl}-S-methylsulfoximide]
IC50 [5]: 3 µM
